In patent publication US9606124B2, “Methods of detecting and treating stem-cell containing solid tumors” (The Regents of The University of Michigan, priority 2008, dated 2017):
Entries after “also recorded” stand apart in the source; their conditions may differ.

Key:
[1] = test system: FAS-ligand mRNA; assay: Quantitative RT-PCR of FAS-ligand mRNA in SUM159 cells; format: cell-based, human; settings: repertaxin 100 nM, FAS agonist 500 ng/ml, docetaxel 10 nM, trihydrate
Protocol: RNA extraction and qRT-PCR. After SUM159 cells were treated, total RNA was isolated using RNeasy Mini Kit (QIAGEN) and utilized for real-time quantitative RT-PCR (qRT-PCR) assays in a ABI PRISM® 7900HT sequence detection system.

[2] = test system: SUM159 cell line and human breast cancer xenografts MC1, UM2, UM3; assay: Tumor growth of breast cancer xenografts in the mammary fat pad; format: in vivo, NOD/SCID mice; settings: repertaxin 15 mg/Kg s.c. twice a day 28 days, docetaxel 10 mg/Kg i.p. once a week, start at tumor size about 4 mm, trihydrate
Protocol: For each sample, 50,000 cells were injected into the mammary fat pad of NOD-SCID mice which were monitored for tumor size. Injections were started when the tumor size was about 4 mm.
(§1) Animal model. […] Cells from these tumors were transplanted orthotopically in the humanized cleared fat-pad of NOD/SCID mice, without cultivation in vitro. […] 50,000 cells from each xenotransplants were injected in the humanized fat pad of NOD/SCID mice and monitored the tumor growth. […] The animals were euthanized when the tumors were approximately 1.5 cm in the largest diameter, to avoid tumor necrosis and in compliance with regulations for use of vertebrate animal in research. A portion of each fat pad injected was fixed in formalin and embedded in paraffin for histological analysis. The rest of the tumor cells were re-implantated into secondary NOD/SCID mice. Serial dilutions of cells were utilized for the re-implantation with injection of 10,000, 1,000, and 100 cells for each treated tumor.

[3] = test system: ALDEFLUOR-positive cells of SUM159, MC1, UM2, UM3 tumors; assay: ALDEFLUOR assay on treated tumor xenografts; format: in vivo, NOD/SCID mice; settings: residual tumors after four weeks of treatment; trihydrate
Protocol: ALDEFLUOR assay. […] In order to eliminate cells of mouse origin from the xenotransplanted tumors, cell population was stained with an anti-H2Kd antibody (BD biosciences, 1/200, 20 min on ice) followed by staining with a secondary antibody labeled with phycoerythrin (PE) (Jackson labs, 1/250, 20 min on ice).
as §1

[4] = test system: cells from primary tumors SUM159, MC1, UM2, UM3; assay: Re-implantation of cells from treated tumors into secondary mice; format: in vivo, NOD/SCID mice
Protocol: as §1, with “Serial dilutions of cells were utilized for the re-implantation with injection of 10,000, 1,000, and 100 cells for each treated tumor.” left out

[5] = test system: CD44+/CD24- cell population of MC1, UM2, UM3 xenografts; assay: CD44+/CD24- cells in treated tumors (flow cytometry); parameters: species or system NOD/SCID mice; settings: mouse, in vivo
Protocol: as §1
Flow cytometry analysis. […] CD95/FAS staining were performed utilizing an anti-CD95 labeled APC (1:20, BD biosciences). […] Fresh cells were stained with 1 μg/ml PI (Sigma) for 5 min for viability.

[6] = test system: FOXO3A; assay: Immunohistochemistry of FOXO3A in xenotransplants; parameters: species or system NOD/SCID mice; settings: mouse, in vivo
Protocol: (§2) Immunostaining. For immunofluorescent staining, sorted CXCR1-positive cells were fixed with 95% methanol at −20° C. for 10 minutes. Cells were rehydrated in PBS and incubated with respective antibodies at room temperature for 1 hour. Primary antibodies used were P-FAK (1:50, Cell Signaling Technology), P-AKT (1:300, Cell Signaling Technology), and FOXO3a (1:250, Cell Signaling Technology). Slides were then washed and incubated 30 minutes with PE conjugated secondary antibodies (Jackson labs). The nuclei were counterstained with DAPI/antifade (Invitrogen) and coverslipped. […] Immunohistochemistry for the detection of ALDH1 (1:100, BD biosciences), P-FAK, P-AKT, FOXO3a expression was done on paraffin section (Ginestier et al. Am. J Pathol. 161:1223-1233, herein incorporated by reference in its entirety). Staining was done utilizing the Histostainplus kit (Zymed laboratories). Diaminobenzidine (DAB) or 3-amino-9-ethylcarbazole (AEC) was used as chromogen and sections were counterstained with hematoxylin.

[7] = test system: ALDH1; assay: Immunohistochemistry of ALDH1 in xenotransplants; format: in vivo, NOD/SCID mice; settings: compared to untreated tumors
Protocol: as §2

[8] = test system: normal mammary epithelial cells; assay: Mammosphere formation by normal mammary epithelial cells; format: cell-based, human; settings: normal mammary epithelial cells in suspension, human recombinant IL-8
[9] = test system: HCC1954, SUM159, MDA-MB-453; assay: Tumorsphere formation of breast cell lines treated with IL8; format: cell-based; settings: human recombinant IL8
Protocol: Anchorage-independent culture. ALDEFLUOR-positive, -negative and unseparated cells from 184A1, SUM149 and SUM159 were plated as single cells in ultra-low attachment plates (Corning, Acton, Mass.) at low density (5000 viable cells/ml). Cells were grown in serum-free mammary epithelial basal medium (Cambrex Bio Science, Walkerville, Md.) for 3-7 days, as described (18). The capacity of cells to form spheres was quantified after treatment with different doses of IL8 (GenWay Biotech, San Diego, Calif.) added to the medium.

[10] = test system: four breast cell lines cultured in adherent conditions; assay: ALDEFLUOR-positive population of breast cell lines treated with IL8; format: cell-based; settings: human recombinant IL8
Protocol: ALDEFLUOR Assay and Separation of the ALDH-positive Population by FACS. ALDH activity was assessed in 33 BCLs representing the main molecular subtypes of human breast cancer. The ALDEFLUOR kit (StemCell technologies, Durham, N.C., USA) was used to isolate the population with high ALDH enzymatic activity (17). Cells obtained from subconfluent cell lines after trypsinization or from freshly dissociated xenografts were suspended in ALDEFLUOR assay buffer containing ALDH substrate (BAAA, 1 μmol/l per 1×10^6 cells) and incubated for 40 minutes at 37° C. In each experiment a sample of cells was stained under identical conditions with […] of diethylaminobenzaldehyde (DEAB), a specific ALDH inhibitor, as negative control. Flow cytometry sorting was conducted using a FACStarPLUS (Becton Dickinson). ALDEFLUOR fluorescence was excited at 488 nm and detected using standard fluorescein isothiocyanate (FITC) 530/30 band pass filter. For xenotransplanted tumors, incubation with an anti-H2Kd antibody (BD biosciences, 1/200, 20 min on ice) followed by a secondary antibody labeled with phycoerythrin (Jackson labs, 1/250, 20 min on ice) was used to eliminate cells of mouse origin. […] For both cell lines, sorted ALDEFLUOR-positive populations contained more than 98% of ALDEFLUOR-positive cells and no ALDEFLUOR-positive cells were detected in the ALDEFLUOR-negative population.

[11] = test system: ALDEFLUOR-positive and -negative cells of HCC1954, MDA-MB-453, SUM159; assay: Matrigel invasion assay with IL8 as attractant; format: cell-based, human; settings: IL8 100 ng/ml as attractant
Protocol: Invasion assay. Assays were done in triplicate in transwell chambers with 8 μm pore polycarbonate filter inserts for 12-well plates (Corning, N.Y.). Filters were coated with 30 ul of ice-cold 1:6 basement membrane extract (Matrigel, BD-Bioscience) in DMEM/F12 incubated 1 hour at 37° C. Cells were added to the upper chamber in 200 ul of serum-free medium. For the invasion assay, 5000 cells were seeded on the Matrigel-coated filters and the lower chamber was filled with 600 ul of medium supplemented with 10% human serum (Cambrex) or with 600 ul of serum-free medium supplemented with IL8 (100 ng/mL). After 48 hours incubation, the cells on the underside of the filter were counted using light microscopy. Relative invasion was normalized to the unseparated corresponding cell lines under serum condition.

## CC(=O)O[C@@]12CO[C@@H]1C[C@H](O)[C@@]1(C)C(=O)[C@H](O)C3=C(C)[C@@H](OC(=O)[C@H](O)[C@@H](NC(=O)OC(C)(C)C)c4ccccc4)C[C@@](O)([C@@H](OC(=O)c4ccccc4)[C@H]21)C3(C)C [Docetaxel, (2R,3S)-N-carboxy-3-phenylisoserine, N-tert-butyl ester, 13-ester with 5b-20-epoxy-12a,4,7b,10b,13a-hexahydroxytax-11-en-9-one 4-acetate 2-benzoate, trihydrate]
[1]; listed as docetaxel
  increase of FAS-ligand mRNA level compared to non-treated cells: induced both IL-8 and FAS-ligand mRNA
[1]
  increase of FAS-ligand mRNA level compared to non-treated cells: induced both FAS-ligand (A) and IL-8 (B) mRNA
[2]; listed as docetaxel
  tumor size / tumor growth compared to the control: significant inhibition of tumor growth; also recorded: statistically significant reduction of the tumor size
[2]
  tumor size / tumor growth compared to the control: statistically significant reduction of the tumor size
[3]
  ALDEFLUOR-positive cells (cancer stem cells) in treated tumors, decrease compared to the control: unchanged or increased
[4]; number of cells injected 100
  Tumors/Injections: 8/9
[4]; number of cells injected 250
  Tumors/Injections: 2/3
[4]; number of cells injected 500
  Tumors/Injections: 3/4
[4]; number of cells injected 1,000
  Tumors/Injections: 6/6
[4]; number of cells injected 2,500
  Tumors/Injections: 2/2
[4]; number of cells injected 5,000
  Tumors/Injections: 4/4
[4]; number of cells injected 10,000
  Tumors/Injections: 2/2
[4]; secondary NOD/SCID mice, no further treatment, trihydrate
  secondary tumor formation / regrowth from serial dilutions of treated primary tumors: formed secondary tumors at all dilutions
[5]
  percent of CD44+/CD24- cells in residual tumors: unchanged or increased percent
[6]
  nuclear FOXO3A in treated tumors: detected
[7]
  ALDH1-positive cells / ALDH1 expression in treated tumors: unchanged or increased

## IL8: human recombinant IL8 (GenWay Biotech), chemokine ligand of CXCR1
[8]
  formation of primary and secondary mammospheres: increased the formation of primary (B) and secondary mammospheres (C) in a dose-dependent manner
[8]; listed as IL-8
  formation of primary and secondary mammospheres: increased the formation of primary and secondary mammospheres in a dose-dependent manner
[9]
  formation of primary and secondary tumorspheres: increased the formation of primary and secondary tumorspheres in a dose-dependent manner; also recorded: increased the formation of primary and secondary tumorospheres in a dose-dependent manner
[10]
  ALDEFLUOR-positive population: increased the ALDEFLUOR-positive population in a dose-dependent manner
[11]
  invasive capacity of ALDEFLUOR-negative cells: did not have any effect; also recorded: no effect
[11]; compared to serum
  invasion of ALDEFLUOR-positive cells through Matrigel: increased invasion; also recorded: significant increase
